{"source": "patent US11077111B2", "about": "“Use of fused heteroaromatic pyrrolidones for treatment and prevention of diseases in animals” (Bayer Animal Health GmbH, priority 2017, dated 2021)", "key": {"[1]": {"test_system": "house dust mites (HDM)-sensitized Beagle dogs", "assay": "In vivo model of house dust mite induced canine allergic dermatitis", "conditions": "for reduction rates of edema / reduction rates of erythema: range over time points", "method": "Therein, HDM-sensitization consisted of a series of subcutaneous injections of HDM antigen (10 μg, Greer Laboratories, Lenoir, N.C., USA) and Alhydrogel® (0.2 mL, InvivoGen, San Diego, Calif. 921221, USA) as adjuvant in time intervals of approximately two weeks. The sensitization process was monitored and confirmed by intradermal skin testing. […] The control group was not treated while the group treated with the compound according to formula (IIIa) supra was orally treated with gelatin capsules containing the compound according to formula (IIIa) supra and Ac-Di-Sol; the group receiving Apoquel®, received the commercially available tablets. […] Plasma samples were analyzed to determine exposure to the compound in relationship to the clinical evaluations. […] This is illustrated by Tables 1 and 2, and by FIGS. 1 and 2."}, "[2]": {"target": "IRAK4 (Canis lupus familiaris, UniProt A0A8I3S726)", "sequence (A0A8I3S726 1-460)": "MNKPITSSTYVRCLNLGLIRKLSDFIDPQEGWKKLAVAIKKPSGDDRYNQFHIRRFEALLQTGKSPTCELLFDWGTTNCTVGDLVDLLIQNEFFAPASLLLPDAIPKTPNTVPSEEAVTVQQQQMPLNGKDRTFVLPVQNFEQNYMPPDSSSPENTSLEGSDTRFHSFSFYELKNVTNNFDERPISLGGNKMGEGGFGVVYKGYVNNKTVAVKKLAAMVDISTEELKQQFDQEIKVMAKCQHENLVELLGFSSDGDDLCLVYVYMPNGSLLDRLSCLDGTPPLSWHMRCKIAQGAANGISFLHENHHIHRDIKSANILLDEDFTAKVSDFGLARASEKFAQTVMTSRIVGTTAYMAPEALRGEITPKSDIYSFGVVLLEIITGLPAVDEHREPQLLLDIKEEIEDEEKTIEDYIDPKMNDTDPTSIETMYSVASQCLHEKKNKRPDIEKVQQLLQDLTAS", "assay": "Radiometric protein kinase assay, dog IRAK4", "format": "biochemical, Dog (Canis lupus familiaris)", "conditions": "10 μM ATP", "method": "(§1) A radiometric protein kinase assay was used for measuring the kinase activity of the Dog (Canis lupus familiaris) IRAK4, JAK1, JAK2, SYK kinases. All kinase assays were performed in 96-well FlashPlates in a 50 μl reaction volume. The reaction cocktail was pipetted in four steps in the following order: • 20 μl of assay buffer (standard buffer) • […] of test compound (in 10% DMSO) • 20 μl enzyme/substrate mix • […] (in H2O) The reaction cocktails were incubated at 30° C. for 60 minutes. The reaction was stopped with 50 μl of 2% (v/v) H3PO4, plates were aspirated and washed two times with 200 μl 0.9% (w/v) NaCl. Incorporation of 33Pi was determined with a microplate scintillation counter.\n(§2) IC50 calculation: the residual activity (in %) for each well of a particular plate was calculated by using the following formula: Res. Activity (%)=100×[(cpm of compound−low control)/(high control−low control)]\n(§3) The residual activities for each concentration and the compound IC50 values were calculated using Quattro Workflow V3.1.1 (Quattro Research GmbH, Munich, Germany; www.quattro-research.com). The fitting model for the IC50 determinations was “Sigmoidal response (variable slope)” with parameters “top” fixed at 100% and “bottom” at 0%. The fitting method used was a least-squares fit. […]"}, "[3]": {"target": "JAK1 (Canis lupus familiaris, UniProt A0A8I3RS40)", "sequence (A0A8I3RS40 1-1159)": "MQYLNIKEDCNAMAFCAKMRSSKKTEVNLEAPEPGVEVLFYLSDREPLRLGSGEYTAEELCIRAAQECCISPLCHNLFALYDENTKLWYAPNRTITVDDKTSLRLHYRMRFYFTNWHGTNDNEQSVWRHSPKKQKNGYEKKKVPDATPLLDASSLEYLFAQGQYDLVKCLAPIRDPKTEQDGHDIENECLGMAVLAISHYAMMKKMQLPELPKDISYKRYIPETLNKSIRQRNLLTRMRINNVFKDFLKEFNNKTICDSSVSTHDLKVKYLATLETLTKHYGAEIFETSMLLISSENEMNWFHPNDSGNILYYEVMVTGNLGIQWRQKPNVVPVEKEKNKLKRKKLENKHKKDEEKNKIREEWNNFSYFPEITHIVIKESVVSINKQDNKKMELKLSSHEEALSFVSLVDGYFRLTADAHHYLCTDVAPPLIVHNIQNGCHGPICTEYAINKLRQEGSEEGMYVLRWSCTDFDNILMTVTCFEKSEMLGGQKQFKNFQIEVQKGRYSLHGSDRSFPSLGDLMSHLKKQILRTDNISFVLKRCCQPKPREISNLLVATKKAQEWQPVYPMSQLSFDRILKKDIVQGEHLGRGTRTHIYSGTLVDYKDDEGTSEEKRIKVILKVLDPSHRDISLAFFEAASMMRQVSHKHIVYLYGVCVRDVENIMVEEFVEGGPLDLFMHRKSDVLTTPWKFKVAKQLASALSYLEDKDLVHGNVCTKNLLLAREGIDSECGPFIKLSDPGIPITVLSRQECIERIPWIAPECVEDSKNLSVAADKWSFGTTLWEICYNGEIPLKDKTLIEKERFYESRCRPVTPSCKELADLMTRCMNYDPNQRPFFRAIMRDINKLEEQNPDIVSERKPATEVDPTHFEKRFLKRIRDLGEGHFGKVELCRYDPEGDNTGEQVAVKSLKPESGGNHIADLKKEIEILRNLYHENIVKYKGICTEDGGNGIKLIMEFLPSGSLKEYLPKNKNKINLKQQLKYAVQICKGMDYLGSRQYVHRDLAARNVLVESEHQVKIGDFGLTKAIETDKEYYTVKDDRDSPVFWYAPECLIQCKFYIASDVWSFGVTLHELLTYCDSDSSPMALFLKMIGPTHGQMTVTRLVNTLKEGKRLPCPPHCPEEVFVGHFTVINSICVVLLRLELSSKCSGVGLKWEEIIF", "assay": "Radiometric protein kinase assay, dog JAK1", "format": "biochemical, Dog (Canis lupus familiaris)", "conditions": "3 μM ATP", "method": "as §1, §2, §3"}, "[4]": {"target": "JAK2 (Canis lupus familiaris, UniProt A0A8C0QV87)", "sequence (A0A8C0QV87 1-1132)": "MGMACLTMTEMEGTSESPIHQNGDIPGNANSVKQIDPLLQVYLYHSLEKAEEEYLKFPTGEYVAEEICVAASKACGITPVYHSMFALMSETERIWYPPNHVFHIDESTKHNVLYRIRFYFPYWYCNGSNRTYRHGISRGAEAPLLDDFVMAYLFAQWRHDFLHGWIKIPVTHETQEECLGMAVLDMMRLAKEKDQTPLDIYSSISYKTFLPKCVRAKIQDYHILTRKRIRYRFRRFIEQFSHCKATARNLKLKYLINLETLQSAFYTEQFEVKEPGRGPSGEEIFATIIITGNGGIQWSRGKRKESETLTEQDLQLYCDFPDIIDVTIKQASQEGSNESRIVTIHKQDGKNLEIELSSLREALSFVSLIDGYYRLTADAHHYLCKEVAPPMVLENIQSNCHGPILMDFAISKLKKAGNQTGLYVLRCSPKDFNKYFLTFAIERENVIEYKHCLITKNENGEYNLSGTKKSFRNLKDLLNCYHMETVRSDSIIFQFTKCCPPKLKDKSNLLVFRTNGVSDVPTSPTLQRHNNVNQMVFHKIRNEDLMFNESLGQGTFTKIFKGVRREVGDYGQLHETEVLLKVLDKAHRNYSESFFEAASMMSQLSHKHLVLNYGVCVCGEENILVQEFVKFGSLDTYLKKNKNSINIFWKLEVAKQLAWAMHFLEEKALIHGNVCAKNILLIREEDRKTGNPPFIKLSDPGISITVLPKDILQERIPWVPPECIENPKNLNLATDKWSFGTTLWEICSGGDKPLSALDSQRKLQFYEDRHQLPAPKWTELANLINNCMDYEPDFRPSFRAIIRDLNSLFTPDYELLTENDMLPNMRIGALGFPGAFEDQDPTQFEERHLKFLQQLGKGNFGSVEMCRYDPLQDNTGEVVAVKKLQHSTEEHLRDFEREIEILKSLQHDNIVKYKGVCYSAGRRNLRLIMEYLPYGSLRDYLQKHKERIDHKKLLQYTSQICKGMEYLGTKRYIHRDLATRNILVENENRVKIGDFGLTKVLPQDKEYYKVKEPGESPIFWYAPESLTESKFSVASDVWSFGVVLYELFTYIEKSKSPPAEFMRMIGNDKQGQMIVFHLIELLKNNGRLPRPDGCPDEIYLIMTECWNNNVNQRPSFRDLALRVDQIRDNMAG", "assay": "Radiometric protein kinase assay, dog JAK2", "format": "biochemical, Dog (Canis lupus familiaris)", "conditions": "0.3 μM ATP", "method": "as §1, §2, §3"}, "[5]": {"target": "SYK (Canis lupus familiaris, UniProt A0A8I3P3G0)", "sequence (A0A8I3P3G0 1-633)": "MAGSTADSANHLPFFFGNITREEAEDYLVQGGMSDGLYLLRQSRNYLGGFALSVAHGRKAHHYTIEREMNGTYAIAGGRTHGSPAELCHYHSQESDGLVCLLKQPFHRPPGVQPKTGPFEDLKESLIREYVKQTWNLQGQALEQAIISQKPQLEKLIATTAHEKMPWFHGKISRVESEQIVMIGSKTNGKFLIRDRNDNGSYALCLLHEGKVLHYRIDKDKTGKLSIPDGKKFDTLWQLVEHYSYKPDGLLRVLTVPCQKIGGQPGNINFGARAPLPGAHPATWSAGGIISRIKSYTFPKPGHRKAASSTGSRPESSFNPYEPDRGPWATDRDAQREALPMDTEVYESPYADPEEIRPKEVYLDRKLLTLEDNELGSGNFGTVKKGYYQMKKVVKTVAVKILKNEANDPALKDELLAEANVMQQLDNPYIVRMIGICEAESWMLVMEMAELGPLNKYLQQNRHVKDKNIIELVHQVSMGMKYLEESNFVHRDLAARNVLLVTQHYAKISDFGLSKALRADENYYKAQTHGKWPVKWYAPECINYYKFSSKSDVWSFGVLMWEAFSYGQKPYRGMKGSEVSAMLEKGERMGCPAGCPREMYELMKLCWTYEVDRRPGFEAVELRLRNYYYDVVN", "assay": "Radiometric protein kinase assay, dog SYK", "format": "biochemical, Dog (Canis lupus familiaris)", "conditions": "1 μM ATP", "method": "A radiometric protein kinase assay was used for measuring the kinase activity of the Dog (Canis lupus familiaris) IRAK4, JAK1, JAK2, SYK kinases. All kinase assays were performed in 96-well FlashPlates in a 50 μl reaction volume. […] The reaction was stopped with 50 μl of 2% (v/v) H3PO4, plates were aspirated and washed two times with 200 μl 0.9% (w/v) NaCl. Incorporation of 33Pi was determined with a microplate scintillation counter. IC50 calculation: the residual activity (in %) for each well of a particular plate was calculated by using the following formula: Res. Activity (%)=100×[(cpm of compound−low control)/(high control−low control)] […] The fitting method used was a least-squares fit. Materials: The dog (Canis lupus familiaris) protein kinases IRAK4, JAK1, JAK2 and SYK had been recombinantly expressed in Sf9 insect cells and purified by affinity chromatography."}, "[6]": {"conditions": "0.8 mg/kg BID oral, 0.5 h post-challenge"}, "[7]": {"conditions": "0.8 mg/kg BID oral, 1 h post-challenge"}, "[8]": {"conditions": "0.8 mg/kg BID oral, 4 h post-challenge"}, "[9]": {"conditions": "0.8 mg/kg BID oral, 6 h post-challenge"}, "[10]": {"conditions": "0.8 mg/kg BID oral, 24 h post-challenge"}, "[11]": {"conditions": "0.8 mg/kg BID oral, 48 h post-challenge"}, "[12]": {"conditions": "2 mg/kg BID oral, 0.5 h post-challenge"}, "[13]": {"conditions": "2 mg/kg BID oral, 1 h post-challenge"}, "[14]": {"conditions": "2 mg/kg BID oral, 4 h post-challenge"}, "[15]": {"conditions": "2 mg/kg BID oral, 6 h post-challenge"}, "[16]": {"conditions": "2 mg/kg BID oral, 24 h post-challenge"}, "[17]": {"conditions": "2 mg/kg BID oral, 48 h post-challenge"}}, "data": [{"compound": "Cn1cc(-c2nc(N[C@@H]3CCCC[C@@H]3N)c(F)c3c2C(=O)NC3)cn1", "note": "[IIIa, 6-((1R,2S)-2-aminocyclohexylamino)-7-fluoro-4-(1-methyl-1H-pyrazol-4-yl)-1H-pyrrolo[3,4-c]pyridine-3(2H)-one]", "values": [{"measurement": "Percentage of reduction of Edema (compared to untreated control, median values)", "setting": "[1]; [6]", "result": 41, "unit": "%"}, {"measurement": "Percentage of reduction of Erythema (compared to untreated control, median values)", "setting": "[1]; [6]", "result": 33, "unit": "%"}, {"measurement": "Percentage of reduction of Edema (compared to untreated control, median values)", "setting": "[1]; [7]", "result": 52, "unit": "%"}, {"measurement": "Percentage of reduction of Erythema (compared to untreated control, median values)", "setting": "[1]; [7]", "result": 63, "unit": "%"}, {"measurement": "Percentage of reduction of Edema (compared to untreated control, median values)", "setting": "[1]; [8]", "result": 39, "unit": "%"}, {"measurement": "Percentage of reduction of Erythema (compared to untreated control, median values)", "setting": "[1]; [8]", "result": 30, "unit": "%"}, {"measurement": "Percentage of reduction of Edema (compared to untreated control, median values)", "setting": "[1]; [9]", "result": 49, "unit": "%"}, {"measurement": "Percentage of reduction of Erythema (compared to untreated control, median values)", "setting": "[1]; [9]", "result": 28, "unit": "%"}, {"measurement": "Percentage of reduction of Edema (compared to untreated control, median values)", "setting": "[1]; [10]", "result": 41, "unit": "%"}, {"measurement": "Percentage of reduction of Erythema (compared to untreated control, median values)", "setting": "[1]; [10]", "result": 43, "unit": "%"}, {"measurement": "Percentage of reduction of Edema (compared to untreated control, median values)", "setting": "[1]; [11]", "result": 100, "unit": "%"}, {"measurement": "Percentage of reduction of Erythema (compared to untreated control, median values)", "setting": "[1]; [11]", "result": 100, "unit": "%"}, {"measurement": "reduction rates of edema", "setting": "[1]; 0.8 mg/kg BID", "result": "39-100%"}, {"measurement": "reduction rates of erythema", "setting": "[1]; 0.8 mg/kg BID", "result": "28-100%"}, {"measurement": "comparative reduction of edema in the CAD model (% compared the control group), up to", "setting": "[1]; 2 mg/kg BID", "result": "> 75", "unit": "%"}, {"measurement": "comparative reduction of erythema in the CAD model (% compared the control group), up to", "setting": "[1]; 2 mg/kg BID", "result": "> 75", "unit": "%"}, {"measurement": "Percentage of reduction of Edema (compared to untreated control, median values)", "setting": "[1]; [12]", "result": 76, "unit": "%"}, {"measurement": "Percentage of reduction of Erythema (compared to untreated control, median values)", "setting": "[1]; [12]", "result": 74, "unit": "%"}, {"measurement": "Percentage of reduction of Edema (compared to untreated control, median values)", "setting": "[1]; [13]", "result": 81, "unit": "%"}, {"measurement": "Percentage of reduction of Erythema (compared to untreated control, median values)", "setting": "[1]; [13]", "result": 76, "unit": "%"}, {"measurement": "Percentage of reduction of Edema (compared to untreated control, median values)", "setting": "[1]; [14]", "result": 75, "unit": "%"}, {"measurement": "Percentage of reduction of Erythema (compared to untreated control, median values)", "setting": "[1]; [14]", "result": 75, "unit": "%"}, {"measurement": "Percentage of reduction of Edema (compared to untreated control, median values)", "setting": "[1]; [15]", "result": 79, "unit": "%"}, {"measurement": "Percentage of reduction of Erythema (compared to untreated control, median values)", "setting": "[1]; [15]", "result": 76, "unit": "%"}, {"measurement": "Percentage of reduction of Edema (compared to untreated control, median values)", "setting": "[1]; [16]", "result": 75, "unit": "%"}, {"measurement": "Percentage of reduction of Erythema (compared to untreated control, median values)", "setting": "[1]; [16]", "result": 69, "unit": "%"}, {"measurement": "Percentage of reduction of Edema (compared to untreated control, median values)", "setting": "[1]; [17]", "result": 100, "unit": "%"}, {"measurement": "Percentage of reduction of Erythema (compared to untreated control, median values)", "setting": "[1]; [17]", "result": 100, "unit": "%"}, {"measurement": "reduction rates of edema", "setting": "[1]; 2 mg/kg BID", "result": "75-100%"}, {"measurement": "reduction rates of erythema", "setting": "[1]; 2 mg/kg BID", "result": "69-100%"}, {"measurement": "effect on clinical signs of CAD (edema and erythema)", "setting": "[1]; House Dust Mite model, oral BID", "result": "significantly reduced"}]}, {"compound": "Cn1cc(-c2nc(N[C@@H]3CCCC[C@@H]3N)c(Cl)c3c2C(=O)NC3)cn1", "note": "[IVa, 6-((1R,2S)-2-Aminocyclohexylamino)-7-chloro-4-(1-methyl-1H-pyrazol-4-yl)-1H-pyrrolo[3,4-c]pyridin-3(2H)-one]", "values": [{"measurement": "IC50", "setting": "[2]", "result": 10.2, "unit": "nM"}, {"measurement": "IC50", "setting": "[3]", "result": 466, "unit": "nM"}, {"measurement": "IC50", "setting": "[4]", "result": 624, "unit": "nM"}, {"measurement": "IC50", "setting": "[5]", "result": 323, "unit": "nM"}]}]}
